What was measured:
Human μ-opioid (MOP) = target: T1, Human μ-opioid (MOP) (Homo sapiens, UniProt P35372); experiment: Radioligand binding, human μ-opioid (MOP) membranes, FlashPlate, [3H]-Naloxone; settings: compound at 10 μM, [3H]-Naloxone
T1 construct: purchased Perkin Elmer Biosignal
Procedure, shortened: (§1)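 Cloned human receptor membranes were coated onto FlashPlate wells and incubated with radioligand and compound (added from a 0.5 mM DMSO daughter plate) for 1 hour at room temperature in the dark. Scintillation counting gave percent inhibition, with DMSO defining total and reference ligand defining non-specific binding.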

Human Melanocortin (MC3) = target: T2, Human Melanocortin (MC3) (Homo sapiens, UniProt P41968); experiment: Radioligand binding, human melanocortin MC3 membranes, FlashPlate, [125I]-NDP-αMSH; settings: compound at 10 μM, [125I]-NDP-αMSH
T2 construct: purchased Perkin Elmer Biosignal
Procedure, shortened: as §1

[1] = target: T3, Human melanin-concentrating hormone (MCH1) (Homo sapiens, UniProt Q99705); experiment: Radioligand binding, human melanin-concentrating hormone MCH1 membranes, FlashPlate, [125I]-S36057; settings: compound at 10 μM
T3 construct: purchased Perkin Elmer Biosignal
Procedure, shortened: as §1

Human δ-opioid (DOP) = target: T4, Human δ-opioid (DOP) (Homo sapiens, UniProt P41143); experiment: Radioligand binding, human δ-opioid (DOP) membranes, FlashPlate, [3H]-Bremazocine; settings: compound at 10 μM, [3H]-Bremazocine
T4 construct: purchased Perkin Elmer Biosignal
Procedure, shortened: as §1

Human neurokinin (NK1) = target: T5, Human neurokinin (NK1) (Homo sapiens, UniProt P25103); experiment: Radioligand binding, human neurokinin NK1 membranes, filtration, [125I]-Substance P; settings: compound at 10 μM, [125I]-Substance P
T5 construct: purchased Perkin Elmer Biosignal
Procedure, shortened: (§2)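 Membranes from cloned human receptors were incubated with compound and radioligand for 1 hour at room temperature. Bound ligand was collected on 0.3% PEI-soaked filters, washed with cold 50 mM Tris-HCl pH 7.4, and counted by scintillation. Percent inhibition was computed against DMSO totals and reference-ligand nonspecific wells.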

Mouse urotensin (mUR2) = target: T6, Mouse urotensin (mUR2) (Mus musculus, UniProt Q8VIH9); experiment: Radioligand binding, mouse urotensin mUR2 membranes, FlashPlate, [125I]-Urotensin II; settings: compound at 10 μM, [125I]-Urotensin II
T6 construct: purchased Perkin Elmer Biosignal
T6 sequence (Q8VIH9 1-385): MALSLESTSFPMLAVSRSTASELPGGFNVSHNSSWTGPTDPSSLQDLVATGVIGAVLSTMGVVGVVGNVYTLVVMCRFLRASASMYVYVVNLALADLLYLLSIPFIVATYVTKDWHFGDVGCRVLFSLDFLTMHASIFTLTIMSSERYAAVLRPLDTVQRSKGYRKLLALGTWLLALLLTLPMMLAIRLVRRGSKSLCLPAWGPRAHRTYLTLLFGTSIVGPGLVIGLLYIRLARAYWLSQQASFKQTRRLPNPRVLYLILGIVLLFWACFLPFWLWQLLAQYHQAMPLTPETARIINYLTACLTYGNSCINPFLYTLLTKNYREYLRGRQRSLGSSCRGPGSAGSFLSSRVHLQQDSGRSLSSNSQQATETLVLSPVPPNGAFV
Procedure, shortened: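 Cloned mouse urotensin (mUR2) receptor membranes from Perkin Elmer Biosignal were immobilized in FlashPlate microplates using a proprietary coating. Each well got 19.5 μl buffer, then 0.5 μl of DMSO, reference ligand, or compound. Adding 5 μl of [125I]-Urotensin II, diluted to 5× final concentration in binding buffer, started binding. Plates were sealed with TopSeal-A and incubated 1 hour at room temperature in the dark. Wells were counted for 30 seconds each on a TopCount after a 60-second delay, and percentage inhibition was calculated.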

Human melanocortin (MC5) = target: T7, Human melanocortin (MC5) (Homo sapiens, UniProt P33032); experiment: Radioligand binding, human melanocortin MC5 membranes, FlashPlate, [125I]-NDP-αMSH; settings: compound at 10 μM, [125I]-NDP-αMSH
T7 construct: purchased Perkin Elmer Biosignal
Procedure, shortened: as §1

[2] = target: T8, Human neuropeptide Y (NPY-Y1) (Homo sapiens, UniProt P25929); experiment: Radioligand binding, human neuropeptide Y NPY-Y1 membranes, FlashPlate, [125I]-PYY; settings: compound at 10 μM, [125I]-PYY
T8 construct: purchased Perkin Elmer Biosignal
T8 sequence (P25929 1-384): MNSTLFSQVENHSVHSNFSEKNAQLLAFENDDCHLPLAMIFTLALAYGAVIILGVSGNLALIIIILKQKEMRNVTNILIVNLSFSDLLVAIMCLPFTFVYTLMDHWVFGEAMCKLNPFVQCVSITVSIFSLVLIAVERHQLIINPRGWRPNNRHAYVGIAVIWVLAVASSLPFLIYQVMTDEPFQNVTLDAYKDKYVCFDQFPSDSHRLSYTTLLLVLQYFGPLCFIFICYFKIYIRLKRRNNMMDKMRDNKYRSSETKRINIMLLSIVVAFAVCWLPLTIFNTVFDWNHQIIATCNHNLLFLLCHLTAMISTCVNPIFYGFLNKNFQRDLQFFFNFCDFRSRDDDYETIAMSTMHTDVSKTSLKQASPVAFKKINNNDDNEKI
Procedure, shortened: as §1

Human κ-Opioid (KOP) = target: T9, Human κ-Opioid (KOP) (Homo sapiens, UniProt P41145); experiment: Radioligand binding, human κ-opioid (KOP) membranes, filtration, [3H]-Diprenorphine; settings: compound at 10 μM, [3H]-Diprenorphine
T9 construct: purchased Perkin Elmer Biosignal
Procedure, shortened: as §2

Human Melanocortin (MC4) = target: T10, Human Melanocortin (MC4) (Homo sapiens, UniProt P32245); experiment: Radioligand binding, human melanocortin MC4 membranes, FlashPlate, [125I]-NDP-αMSH; settings: compound at 10 μM, [125I]-NDP-αMSH
T10 construct: purchased Perkin Elmer Biosignal
Procedure, shortened: as §1

Human opioid (ORL1) = target: T11, Human opioid (ORL1) (Homo sapiens, UniProt P41146); experiment: Radioligand binding, human opioid ORL1 membranes, FlashPlate, [125I]-Nociceptin; settings: compound at 10 μM, [125I]-Nociceptin
T11 construct: purchased Perkin Elmer Biosignal
Procedure, shortened: as §1

T5 sequence (P25103 whole entry): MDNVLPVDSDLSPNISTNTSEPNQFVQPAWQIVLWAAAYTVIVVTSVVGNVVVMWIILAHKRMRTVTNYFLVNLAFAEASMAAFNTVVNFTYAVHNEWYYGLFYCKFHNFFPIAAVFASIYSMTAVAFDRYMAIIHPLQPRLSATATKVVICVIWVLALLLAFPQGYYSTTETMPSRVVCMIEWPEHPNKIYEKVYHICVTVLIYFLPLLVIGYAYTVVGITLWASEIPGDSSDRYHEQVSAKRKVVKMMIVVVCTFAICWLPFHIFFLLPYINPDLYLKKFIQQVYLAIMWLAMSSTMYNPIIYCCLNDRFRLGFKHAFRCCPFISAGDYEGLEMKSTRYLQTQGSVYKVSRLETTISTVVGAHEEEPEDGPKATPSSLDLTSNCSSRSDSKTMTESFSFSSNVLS
T1 sequence (P35372 whole entry): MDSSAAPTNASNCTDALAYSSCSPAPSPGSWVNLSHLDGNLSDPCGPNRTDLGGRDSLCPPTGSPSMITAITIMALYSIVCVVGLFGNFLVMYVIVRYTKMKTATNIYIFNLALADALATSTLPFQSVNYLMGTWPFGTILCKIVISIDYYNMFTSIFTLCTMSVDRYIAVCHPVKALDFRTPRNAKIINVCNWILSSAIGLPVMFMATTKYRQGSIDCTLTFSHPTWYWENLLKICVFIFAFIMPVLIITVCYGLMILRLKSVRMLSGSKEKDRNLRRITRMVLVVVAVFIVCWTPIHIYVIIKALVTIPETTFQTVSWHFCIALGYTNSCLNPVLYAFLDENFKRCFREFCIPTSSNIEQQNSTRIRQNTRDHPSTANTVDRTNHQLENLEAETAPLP
T10 sequence (P32245 whole entry): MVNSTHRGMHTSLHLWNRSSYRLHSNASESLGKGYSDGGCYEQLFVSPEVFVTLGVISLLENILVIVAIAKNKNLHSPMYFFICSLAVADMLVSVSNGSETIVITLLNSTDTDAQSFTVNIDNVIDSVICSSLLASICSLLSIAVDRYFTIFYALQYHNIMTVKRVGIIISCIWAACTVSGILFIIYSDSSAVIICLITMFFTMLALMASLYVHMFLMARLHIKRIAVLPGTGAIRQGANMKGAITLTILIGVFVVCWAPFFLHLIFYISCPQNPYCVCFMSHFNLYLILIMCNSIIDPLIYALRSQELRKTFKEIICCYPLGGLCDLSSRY
T2 sequence (P41968 whole entry): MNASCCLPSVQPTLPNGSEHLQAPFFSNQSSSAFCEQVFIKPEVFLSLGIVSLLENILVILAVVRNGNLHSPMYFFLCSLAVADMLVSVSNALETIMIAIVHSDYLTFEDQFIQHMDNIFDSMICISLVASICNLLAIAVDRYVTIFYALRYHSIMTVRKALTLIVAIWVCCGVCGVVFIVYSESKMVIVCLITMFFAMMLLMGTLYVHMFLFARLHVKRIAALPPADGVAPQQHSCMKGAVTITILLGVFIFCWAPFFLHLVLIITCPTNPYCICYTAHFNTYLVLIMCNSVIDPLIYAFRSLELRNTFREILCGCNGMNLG
T11 sequence (P41146 whole entry): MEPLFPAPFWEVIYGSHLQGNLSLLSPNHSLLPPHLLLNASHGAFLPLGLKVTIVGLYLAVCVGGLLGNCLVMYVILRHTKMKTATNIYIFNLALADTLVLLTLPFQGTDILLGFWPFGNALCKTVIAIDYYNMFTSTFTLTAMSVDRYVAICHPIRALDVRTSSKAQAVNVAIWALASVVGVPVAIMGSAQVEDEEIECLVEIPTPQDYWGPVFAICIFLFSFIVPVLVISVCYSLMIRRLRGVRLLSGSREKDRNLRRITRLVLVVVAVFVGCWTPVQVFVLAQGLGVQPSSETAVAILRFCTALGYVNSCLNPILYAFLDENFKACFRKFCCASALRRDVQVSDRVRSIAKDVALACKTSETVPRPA
T3 sequence (Q99705 whole entry): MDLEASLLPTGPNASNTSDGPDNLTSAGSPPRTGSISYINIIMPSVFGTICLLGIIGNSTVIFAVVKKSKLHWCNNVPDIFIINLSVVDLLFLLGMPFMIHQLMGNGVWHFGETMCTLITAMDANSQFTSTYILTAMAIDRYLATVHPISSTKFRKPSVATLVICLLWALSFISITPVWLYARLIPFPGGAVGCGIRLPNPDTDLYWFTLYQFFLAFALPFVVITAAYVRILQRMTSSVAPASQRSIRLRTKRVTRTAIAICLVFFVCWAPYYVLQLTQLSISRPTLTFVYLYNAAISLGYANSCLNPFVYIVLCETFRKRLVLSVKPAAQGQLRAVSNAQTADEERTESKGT
T7 sequence (P33032 whole entry): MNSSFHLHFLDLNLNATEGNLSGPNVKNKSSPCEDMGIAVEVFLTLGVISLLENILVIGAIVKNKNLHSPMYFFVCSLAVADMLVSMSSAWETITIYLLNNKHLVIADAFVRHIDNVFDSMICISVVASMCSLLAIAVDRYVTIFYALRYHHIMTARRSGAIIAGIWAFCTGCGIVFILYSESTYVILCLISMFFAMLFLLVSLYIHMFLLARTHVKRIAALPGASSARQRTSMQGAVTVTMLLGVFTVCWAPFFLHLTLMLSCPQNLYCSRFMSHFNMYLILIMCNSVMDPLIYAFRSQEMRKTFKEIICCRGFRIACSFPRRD
T4 sequence (P41143 whole entry): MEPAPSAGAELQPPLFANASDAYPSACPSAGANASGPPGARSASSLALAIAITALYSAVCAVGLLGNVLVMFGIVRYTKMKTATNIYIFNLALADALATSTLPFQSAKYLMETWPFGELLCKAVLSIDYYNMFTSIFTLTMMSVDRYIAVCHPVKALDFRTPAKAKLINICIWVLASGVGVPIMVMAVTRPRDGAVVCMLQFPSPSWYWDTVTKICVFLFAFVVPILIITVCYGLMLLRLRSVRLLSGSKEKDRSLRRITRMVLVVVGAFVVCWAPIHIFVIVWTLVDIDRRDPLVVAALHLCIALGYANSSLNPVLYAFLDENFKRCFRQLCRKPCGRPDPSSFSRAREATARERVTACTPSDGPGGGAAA
T9 sequence (P41145 whole entry): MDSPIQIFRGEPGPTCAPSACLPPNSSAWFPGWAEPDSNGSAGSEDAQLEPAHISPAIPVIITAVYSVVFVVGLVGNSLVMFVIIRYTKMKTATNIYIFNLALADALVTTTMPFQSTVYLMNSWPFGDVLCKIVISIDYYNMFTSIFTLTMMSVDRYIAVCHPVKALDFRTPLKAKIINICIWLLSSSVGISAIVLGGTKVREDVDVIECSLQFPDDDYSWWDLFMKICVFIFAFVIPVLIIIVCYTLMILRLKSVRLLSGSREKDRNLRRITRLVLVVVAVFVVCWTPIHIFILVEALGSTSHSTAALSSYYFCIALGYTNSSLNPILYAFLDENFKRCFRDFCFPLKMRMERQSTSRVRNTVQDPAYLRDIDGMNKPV

Q: Which results are given for COC[C@H]1OC(OCCc2ccccc2)[C@H](NC(=O)CCCN)[C@@H](OCc2cccc(O)c2)[C@@H]1O (stereo partly drawn) [compound 140]?
A: A7 radioligand binding, percentage inhibition (Human μ-opioid (MOP)): − (“−” indicates less than 50% inhibition at 10 μM); A3 radioligand binding, percentage inhibition (Human Melanocortin (MC3)): − (“−” indicates less than 50% inhibition at 10 μM); A6 radioligand binding, percentage inhibition ([1]; [125I]-S36057): − (“−” indicates less than 50% inhibition at 10 μM); A1 radioligand binding, percentage inhibition (Human δ-opioid (DOP)): − (“−” indicates less than 50% inhibition at 10 μM); A8 radioligand binding, percentage inhibition (Human neurokinin (NK1)): + (“+” indicates greater than 50% inhibition at 10 μM); A11 radioligand binding, percentage inhibition (Mouse urotensin (mUR2)): − (“−” indicates less than 50% inhibition at 10 μM); A5 radioligand binding, percentage inhibition (Human melanocortin (MC5)): − (“−” indicates less than 50% inhibition at 10 μM); A9 radioligand binding, percentage inhibition [2]: − (“−” indicates less than 50% inhibition at 10 μM); A2 radioligand binding, percentage inhibition (Human κ-Opioid (KOP)): − (“−” indicates less than 50% inhibition at 10 μM); A4 radioligand binding, percentage inhibition (Human Melanocortin (MC4)): − (“−” indicates less than 50% inhibition at 10 μM); A10 radioligand binding, percentage inhibition (Human opioid (ORL1)): − (“−” indicates less than 50% inhibition at 10 μM)

Q: How did the “A7: inhibition of radioligand binding, human μ-opioid (MOP)” value (Human μ-opioid (MOP)) turn out when N=C(N)NCCC(=O)N[C@H]1C(OCc2ccc(Cl)cc2)O[C@H](COCc2ccc(Cl)cc2)[C@@H](O)[C@@H]1OCc1ccc(Cl)cc1 (stereo partly drawn) [compound 526] was run?
A: Its value is “− (“−” indicates less than 50% inhibition at 10 μM)”.

Q: What about the “A3: inhibition of radioligand binding, human melanocortin (MC3)” value (Human Melanocortin (MC3); 10 µM) of the same compound?
A: The value was “− (“−” indicates less than 50% inhibition at 10 μM)”.

Q: And the “A6: inhibition of radioligand binding, human melanin-concentrating hormone (MCH1)” value ([1]; [125I]-S36057)?
A: The value was “+ (“+” indicates greater than 50% inhibition at 10 μM)”.

Q: And the “A1: inhibition of radioligand binding, human δ-opioid (DOP)” value (Human δ-opioid (DOP))?
A: The value was “− (“−” indicates less than 50% inhibition at 10 μM)”.

Q: And the “A8: inhibition of radioligand binding, human neurokinin (NK1)” value (Human neurokinin (NK1))?
A: Its value is “+ (“+” indicates greater than 50% inhibition at 10 μM)”.

Q: What about the “A11: inhibition of radioligand binding, mouse urotensin (mUR2)” value (Mouse urotensin (mUR2)) of the same compound?
A: The value was “− (“−” indicates less than 50% inhibition at 10 μM)”.

Q: What about the “A5: inhibition of radioligand binding, human melanocortin (MC5)” value (Human melanocortin (MC5)) of the same compound?
A: The value was “+ (“+” indicates greater than 50% inhibition at 10 μM)”.

Q: What about the “A9: inhibition of radioligand binding, human neuropeptide Y (NPY-Y1)” value [2] of the same compound?
A: The value was “− (“−” indicates less than 50% inhibition at 10 μM)”.

Q: What about the “A2: inhibition of radioligand binding, human κ-opioid (KOP)” value (Human κ-Opioid (KOP); 10 µM) of the same compound?
A: Its value is “− (“−” indicates less than 50% inhibition at 10 μM)”.

Q: What about the “A4: inhibition of radioligand binding, human melanocortin (MC4)” value (Human Melanocortin (MC4); 10 µM) of the same compound?
A: The value was “− (“−” indicates less than 50% inhibition at 10 μM)”.

Q: And the “A10: inhibition of radioligand binding, human opioid (ORL1)” value (Human opioid (ORL1))?
A: Its value is “− (“−” indicates less than 50% inhibition at 10 μM)”.

Q: What does the source list for CSC1O[C@H](COCc2ccc(-c3ccccc3)cc2)[C@@H](O)[C@@H](OCc2ccc(Cl)cc2)[C@H]1NC(=O)CCCN (stereo partly drawn) [compound 278]?
A: A7: inhibition of radioligand binding (Human μ-opioid (MOP); FlashPlate): − (“−” indicates less than 50% inhibition at 10 μM); A3: inhibition of radioligand binding (Human Melanocortin (MC3); FlashPlate): − (“−” indicates less than 50% inhibition at 10 μM); A6: inhibition of radioligand binding ([1]; [125I]-S36057, FlashPlate): − (“−” indicates less than 50% inhibition at 10 μM); A1: inhibition of radioligand binding (Human δ-opioid (DOP); FlashPlate): − (“−” indicates less than 50% inhibition at 10 μM); A8: inhibition of radioligand binding (Human neurokinin (NK1); filtration): + (“+” indicates greater than 50% inhibition at 10 μM); A11: inhibition of radioligand binding (Mouse urotensin (mUR2); FlashPlate): − (“−” indicates less than 50% inhibition at 10 μM); A5: inhibition of radioligand binding (Human melanocortin (MC5); FlashPlate): − (“−” indicates less than 50% inhibition at 10 μM); A9: inhibition of radioligand binding ([2]; FlashPlate): − (“−” indicates less than 50% inhibition at 10 μM); A2: inhibition of radioligand binding (Human κ-Opioid (KOP); filtration): − (“−” indicates less than 50% inhibition at 10 μM); A4: inhibition of radioligand binding (Human Melanocortin (MC4); FlashPlate): − (“−” indicates less than 50% inhibition at 10 μM); A10: inhibition of radioligand binding (Human opioid (ORL1); FlashPlate): − (“−” indicates less than 50% inhibition at 10 μM)
